Laboratory results reported in patent publication US11793782B2, “Therapeutic agents for neurodegenerative diseases” (priority 2017, dated 2023).

How the values were obtained:
[1] = tested on: Niemann-Pick A (NPA) patient fibroblasts; assay: Lysosomal volume via LysoTracker, NPA fibroblasts; format: cell-based, human; conditions: 1 mM, 6 days
[2] = tested on: Mucolipidosis Type II (MLII) patient fibroblasts; assay: Lysosomal volume via LysoTracker, MLII fibroblasts; format: cell-based, human; conditions: 1 mM, 6 days
[3] = tested on: Mucopolysaccharidosis Type VII (MPS VII) patient fibroblasts; assay: Lysosomal volume via LysoTracker, MPS VII fibroblasts; format: cell-based, human; conditions: 1 mM, 6 days
[4] = tested on: downbeat nystagmus patients; assay: Case studies, downbeat nystagmus patients; format: in vivo, human
Excerpt: The patient was diagnosed with downbeat nystagmus: the patient was severely impaired by blurred vision (oscillopsia) due to the nystagmus, and experienced difficulties while reading and writing. The patient's visual acuity was: right 0.75, left 0.67, binocular 0.83, and the downbeat nystagmus was documented by video-oculography. […] The patient could partially suppress the nystagmus by visual fixation, as evaluated using a target center (dot presented in the center of a display for 30 seconds, FIG. 13A) and in complete darkness using goggles covered with special glasses for 45 seconds (FIG. 13B). The results (median of slow phase velocity, SPV) were as follows: Target Center-horizontal: −0.02°/s, vertical: 2.41°/s; Complete Darkness-horizontal: 0.05°/s, vertical: 3.27°/s (FIG. 13C).

[5] = tested on: MSA-P patients; assay: Case studies, multiple system atrophy Parkinson type (MSA-P) patients; format: in vivo, human
Excerpt: Medication was stopped. […] The patient evaluated after one month on acetyl-DL-leucine. […] Episodes of mental confusion completely disappeared. The patient's cognitive structure seemed much clearer and straighter. […] The patient's spouse supported continuing the medication.

[6] = tested on: SCA 28 patient; assay: Case study, spinocerebellar ataxia 28 (SCA 28); format: in vivo, human
Protocol: A gait analysis was performed before treatment commenced. After about one month of treatment, medication was stopped and the patient was evaluated. […] The patient reported that they no longer walked like a robot and could climb the stairs without using the banisters.

[7] = tested on: Lewy Body dementia patient; assay: Case study, Lewy Body dementia; format: in vivo, human
Protocol: The patient started taking acetyl-leucine (3 g/day for one week; 5 g/day thereafter) and was evaluated after four weeks. […] Medication was reduced to 3 g/day, and the patient was instructed to stop medication about two weeks later.

[8] = tested on: ataxia with oculomotor apraxia type 4 patients; assay: Case study, ataxia with oculomotor apraxia type 4; format: in vivo, human; conditions: AOA4 youngest sibling; on treatment
Excerpt: In this case study, four patients (male siblings) suffered from, and were later diagnosed with, ataxia with oculomotor apraxia type 4. The older three siblings […], at the time of disease onset. […] The older siblings began treatment with acetyl-leucine […], respectively, and have been on the treatment for approximately four years. No long-term clinical data is available for these three patients.
The youngest sibling was […] at the time of onset. […] No long-term clinical data is available for the youngest sibling.

[9] = tested on: amyloid precursor protein C-terminal fragments (APP-CTFs); assay: APP-CTF levels in cerebellum of NPC1−/− mice; format: in vivo, mouse; conditions: 0.1 g/kg body weight daily from 3 weeks of age, sacrificed at 8 weeks
Protocol: The Niemann-Pick Disease Type C (NPC) mouse model shares a number of pathological features with Alzheimer's disease (AD) as described herein. […] Mice were sacrificed at 8 weeks of age. Levels of amyloid precursor protein C-terminal fragments (APP-CTFs) were evaluated relative to total amyloid precursor protein (APP) levels in the cerebellum for wild type, untreated wild type NPC1^−/− mice, and AL-treated wild type NPC1^−/− mice. Levels of microtubule-associated protein 1A/1B-light chain 3-phosphatidylethanolamine conjugate (LC3-II) were also evaluated relative to levels of tubulin loading control for wild type, untreated wild type NPC1^−/− mice, and AL-treated wild type NPC1^−/− mice.

[10] = tested on: MSA-P patients; assay: Case studies, multiple system atrophy Parkinson type (MSA-P) patients; format: in vivo, human; conditions: MSA-P Patient 1; 6 weeks later
[11] = tested on: vertigo patients; conditions: used in France to treat acute vertigo since 1957; cited from earlier work
[12] = downbeat nystagmus Patient 1, approximately 14 weeks after starting
[13] = downbeat nystagmus Patient 2, on treatment, Complete Darkness
[14] = downbeat nystagmus Patient 2, on treatment, Target Center
[15] = MSA-P Patient 2, after 1 month of treatment
[16] = MSA-P Patient 2, after 1 month without treatment
[17] = MSA-P Patient 2, after 2 months without treatment
[18] = after 1 week on acetyl-DL-leucine
[19] = after 4 weeks on acetyl-DL-leucine

Structure (SMILES): CC(=O)NC(CC(C)C)C(=O)O (racemic) [acetyl-DL-leucine]
- LysoTracker fluorescence relative to untreated disease fibroblasts [1]: statistically significant reduction in LysoTracker fluorescence
- LysoTracker fluorescence relative to untreated disease fibroblasts [2]: statistically significant reduction in LysoTracker fluorescence
- LysoTracker fluorescence relative to untreated disease fibroblasts [3]: trend in reducing LysoTracker fluorescence
- Effect of temporary suspension of the medication ([4]; downbeat nystagmus Patient 1): considerable deterioration
- Patient-reported benefit ([4]; downbeat nystagmus Patient 1, 5 gram per day, after 10 days): significant benefit
- Nystagmus (clinical examination) [4, 12]: reduction of the nystagmus
- Posturography [4, 12]: reduction of postural sway
- Visual acuity, left ([4]; downbeat nystagmus Patient 1, approximately 14 weeks after starting, before 0.67): 1.0
- Visual acuity, right ([4]; downbeat nystagmus Patient 1, approximately 14 weeks after starting, before 0.75): 0.83
- Visual acuity, binocular ([4]; downbeat nystagmus Patient 1, approximately 14 weeks after starting, before 0.83): 1
- Side-effects ([4]; downbeat nystagmus Patient 1, continued treatment at 5 gram per day): no side-effects
- Clinical observation ([4]; downbeat nystagmus Patient 2, 5 g/day): improvement of gait
- Median of slow phase velocity (SPV), horizontal [4, 13]: 0.05 °/s
- Median of slow phase velocity (SPV), vertical [4, 13]: 3.27 °/s
- Median of slow phase velocity (SPV), horizontal [4, 14]: −0.02 °/s
- Median of slow phase velocity (SPV), vertical [4, 14]: 2.41 °/s
- Maximal gait velocity ([4]; downbeat nystagmus Patient 2, on treatment, increase from 122): 155 cm/s
- Clinical observation ([5]; MSA-P Patient 1, 5 g/day, after 3 weeks): no significant improvement of gait, reduction of falls or improved hypokinetic rigid-syndrome
- Clinical observation ([5]; MSA-P Patient 2, 5 g per day, after one month of treatment): subjective improvement of dizziness
- Coefficient of variation (temporal) [5, 15]: 2.7
- Double stance [5, 15]: 25.6%
- Functional Gait Assessment [5, 15]: 24/30
- Max. speed [5, 15]: 214 cm/s
- Step cycle length [5, 15]: 120 cm
- Track width [5, 15]: 3.8 cm
- cadence [5, 15]: 109 steps/minute
- speed [5, 15]: 109 cm/s
- Coefficient of variation (temporal) [5, 16]: 1.7
- Double stance [5, 16]: 22.5%
- Functional Gait Assessment [5, 16]: 25/30
- Max. speed [5, 16]: 196 cm/s
- Step cycle length [5, 16]: 126 cm
- Track width [5, 16]: 2.3 cm
- cadence [5, 16]: 109 steps/minute
- speed [5, 16]: 114 cm/s
- Coefficient of variation (temporal) [5, 17]: 2.1
- Double stance [5, 17]: 26.7%
- Functional Gait Assessment [5, 17]: 22/30
- Max. speed [5, 17]: 177 cm/s
- Step cycle length [5, 17]: 107 cm
- Track width [5, 17]: 3.4 cm
- cadence [5, 17]: 106 steps/minute
- speed [5, 17]: 94 cm/s
- Symptoms without medication ([5]; MSA-P Patient 2, after two months without medication): worsening of general symptomatology
- Cognitive function (wife's report) ([5]; MSA-P Patient 3, 5 g per day, after one month): significant improvement of cognitive function
- Gait function ([5]; MSA-P Patient 3, after one month): no improvement of gait function
- Clinical observation ([6]; 5 g per day, after about one month): improvement of the symptomatology
- Coefficient of variation (temporal) ([6]; after treatment for one month, before 4.1): 2.1
- Track width ([6]; after treatment for one month, before 14.5): 11.7 cm
- Functional Gait Assessment ([6]; after treatment for one month, before 24/30): 23/30
- Double stance ([6]; after treatment for one month, before 24.9): 23.8%
- cadence ([6]; after treatment for one month, before 100): 105 steps/minute
- Self-chosen speed ([6]; after treatment for one month, before 101): 118 cm/s
- Step cycle length ([6]; after treatment for one month, before 122): 135 cm
- Maximum speed ([6]; after treatment for one month, before 188): 201 cm/s
- Patient report ([7]; 5 g/day, after four weeks): increased fatigue and a deterioration of balance and speech
- Coefficient of variation (temporal) [7, 18]: 9.1
- Double stance [7, 18]: 36.1%
- Max. speed [7, 18]: 92 cm/s
- Step cycle length [7, 18]: 81 cm
- Track width [7, 18]: 4.6 cm
- cadence [7, 18]: 81 steps/minute
- speed [7, 18]: 55 cm/s
- Coefficient of variation (temporal) [7, 19]: 8.8
- Double stance [7, 19]: 38.7%
- Functional Gait Assessment [7, 19]: 11/30
- Max. speed [7, 19]: 74 cm/s
- Step cycle length [7, 19]: 79 cm
- Track width [7, 19]: 6.7 cm
- cadence [7, 19]: 85 steps/minute
- speed [7, 19]: 56 cm/s
- Patient report ([7]; decreased dose 3 g/day, re-evaluated about one month after ceasing): did not report improvement of symptomatology
- Mother's report compared to older siblings at each age [8]: improved fine motor skills and improved speech
- APP-CTF levels relative to total APP in the cerebellum [9]: lowering of APP-CTFs
- Symptoms after stopping medication [10]: did not report deterioration of symptoms
- Safety profile [11]: excellent safety profile
